Experimental data published in PubChem BioAssay AID463237 (Sanford-Burnham Center for Chemical Genomics, 2010).
Values after ≈ are worked out from the molar mass of the structure shown.

Tested on: aqueous solubility, 1x PBS pH 7.4, UV, 18 h
Assay: compound solubility at pH 7.4 – biophysical, 1x PBS, ADME assay (AID 463237)
Conditions: at 100 µM; active compounds read high

solubility: 14 µg/mL (≈ 36.1 µM)
SMILES: CCCCn1c(NC(=O)c2ccc(F)cc2)c(C#N)c2nc3ccccc3nc21
